Source: the supplement of paper PMC10307832

Key:
Test in all cases: relative viability (nuclei count vs DMSO), 5 days (fraction); higher = more cells survive
[1] = compound: C1/C(=C\C2=CC=CS2)/C(=O)/C(=C/C3=CC=CS3)/C1 + CC(=O)c1c(C)c2cnc(Nc3ccc(N4CCNCC4)cn3)nc2n(C2CCCC2)c1=O [Palbociclib] (partner 0.5 µM)
Outline: (§1)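 Lung cancer cell lines in 1536-well plates got either a single drug or a fixed anchor-drug dose together with five library-drug doses (not always all listed) in √10 steps, by pin tool, on the day after seeding. Nuclei were counted after 5 days, and relative viability is the treated-to-vehicle ratio of nuclei counts. Values are medians of duplicate plates.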

TPCA-1 + Tozasertib = compound: C1=CC(=CC=C1C2=CC(=C(S2)NC(=O)N)C(=O)N)F [TPCA-1] + Cc1cc(Nc2cc(N3CCN(C)CC3)nc(Sc3ccc(NC(=O)C4CC4)cc3)n2)n[nH]1 [Tozasertib] (partner 0.1 µM)
Outline: as §1

Lestaurtinib + AZD7762 = compound: C[C@]12O[C@H](C[C@]1(O)CO)n1c3ccccc3c3c4c(c5c6ccccc6n2c5c31)CNC4=O [Lestaurtinib] + NC(=O)Nc1cc(-c2cccc(F)c2)sc1C(=O)N[C@H]1CCCNC1 [AZD7762] (partner 0.2 µM)
Outline: as §1

[2] = compound: C[C@]12O[C@H](C[C@]1(O)CO)n1c3ccccc3c3c4c(c5c6ccccc6n2c5c31)CNC4=O [Lestaurtinib] + CC1(C)CCC(c2ccc(Cl)cc2)=C(CN2CCN(c3ccc(C(=O)NS(=O)(=O)c4ccc(N[C@H](CCN5CCOCC5)CSc5ccccc5)c(S(=O)(=O)C(F)(F)F)c4)cc3)CC2)C1 [Navitoclax] (partner 0.5 µM)
Outline: as §1

Cell Line	relative viability ([1]; first compound 0.2 µM)	relative viability ([1]; first compound 0.6325 µM)	relative viability ([1]; first compound 2 µM)	relative viability ([1]; first compound 6.325 µM)	relative viability ([1]; first compound 20 µM)	relative viability (TPCA-1 + Tozasertib; first compound 0.04 µM)	relative viability (TPCA-1 + Tozasertib; first compound 0.1265 µM)	relative viability (TPCA-1 + Tozasertib; first compound 0.4 µM)	relative viability (TPCA-1 + Tozasertib; first compound 1.265 µM)	relative viability (TPCA-1 + Tozasertib; first compound 4 µM)	relative viability (Lestaurtinib + AZD7762; first compound 0.005 µM)	relative viability (Lestaurtinib + AZD7762; first compound 0.01581 µM)	relative viability (Lestaurtinib + AZD7762; first compound 0.05 µM)	relative viability (Lestaurtinib + AZD7762; first compound 0.1581 µM)	relative viability (Lestaurtinib + AZD7762; first compound 0.5 µM)	relative viability ([2]; first compound 0.005 µM)	relative viability ([2]; first compound 0.01581 µM)	relative viability ([2]; first compound 0.05 µM)	relative viability ([2]; first compound 0.1581 µM)	relative viability ([2]; first compound 0.5 µM)
NCI-H358	0.187	0.135	0.152	0.143	0.125	0.126	0.113	0.108	0.105	0.0839	0.485	0.413	0.432	0.298	0.253	–	–	–	–	–
NCI-H520	0.256	0.251	0.223	–	0.227	0.445	0.395	0.448	0.498	0.319	–	–	–	–	–	1.11	1.15	1.05	0.455	0.319
NCI-H522	0.855	1.33	1.03	0.735	0.917	0.562	0.589	0.586	0.578	0.553	0.944	0.778	0.842	0.744	0.479	–	–	–	–	–
NCI-H596	–	–	–	–	–	0.834	0.689	0.916	0.86	0.759	1.13	0.95	0.893	1.13	1.05	0.968	0.978	0.937	1.15	0.943
NCI-H650	0.431	0.33	0.345	0.322	0.356	0.707	0.708	0.734	0.546	0.256	0.939	1.07	0.706	0.687	0.302	–	–	–	–	–
NCI-H661	0.405	0.403	0.41	0.394	0.421	0.376	0.349	0.366	0.345	0.339	–	–	–	–	–	–	–	–	–	–
NCI-H1299	–	–	–	–	–	–	–	–	–	–	–	–	–	–	–	1.02	1.06	0.946	0.845	0.489
NCI-H1623	–	–	–	–	–	0.408	0.402	0.454	0.437	0.37	–	–	–	–	–	–	–	–	–	–
NCI-H1648	0.271	0.497	0.271	0.262	0.288	0.548	0.355	0.486	0.573	0.379	–	1.47	–	0.977	0.644	–	–	–	–	–
NCI-H1650	0.312	0.325	0.351	0.373	0.333	0.386	–	0.459	0.339	0.257	–	–	–	–	–	1.24	1.37	1.31	1.56	0.503
NCI-H1703	–	–	–	–	–	–	–	–	–	–	0.122	0.115	0.107	0.108	0.0966	1.22	1.09	0.424	0.219	0.11
NCI-H1792	0.665	0.656	0.713	0.331	0.627	–	–	–	–	–	0.758	0.669	0.556	0.387	0.174	0.322	0.86	0.428	0.23	0.166
NCI-H2009	0.178	0.217	0.255	–	0.208	0.8	0.686	0.834	0.649	0.545	–	–	–	–	–	1.16	1.25	1.06	1.3	0.22
NCI-H2023	0.454	0.386	0.495	0.235	0.332	0.357	0.282	0.335	0.15	0.0965	–	–	–	–	–	1.13	1.06	0.875	0.88	0.252
NCI-H2228	0.784	0.697	0.61	0.793	0.686	0.299	0.178	0.285	0.232	0.108	–	–	–	–	–	0.985	1.29	0.839	0.554	0.162
NCI-H2342	0.511	0.568	0.531	0.482	0.516	0.437	0.438	0.499	0.617	0.391	0.473	0.51	0.469	0.583	0.407	–	–	–	–	–
SK-LU-1	0.39	0.443	0.427	0.357	0.399	0.333	0.297	0.309	0.253	0.248	–	–	–	–	–	0.822	0.736	0.509	0.292	0.173
SK-MES-1	0.347	0.321	0.329	0.311	0.292	0.866	0.82	0.933	0.728	0.24	–	–	–	–	–	1.35	1.25	0.59	0.354	0.343
SW 900	0.578	0.524	0.616	0.451	0.653	0.612	0.556	0.56	0.485	0.245	0.632	0.561	0.555	0.702	0.614	–	–	–	–	–
SW 1573	0.444	0.459	0.516	0.366	0.347	0.189	0.162	0.181	0.132	0.135	–	–	–	–	–	1.14	1.01	0.851	0.699	0.68
